Reference: patent US6117841A, “Substituted peptidylamine calcium channel blockers” (Warner-Lambert Company, priority 1999, dated 2000)

Target: T1, N-type Ca^2+ Channel (Homo sapiens, UniProt Q00975)
T1 construct: host or cells: IMR-32 cells differentiated with dibutyryl cAMP and bromodeoxyuridine
Assay: Measurement of N-type Ca2+ channel blocking potencies in IMR-32 cells using the fluorescent Ca2+ indicator Indo-1
Type: cell-based
Conditions: 1 μM; IMR-32 cells, 5 μM nitrendipine
Method in brief: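 IMR-32 cells were differentiated 7–13 days (1 mM dibutyryl cAMP, 2.5 µM BrdU) and Indo-1-loaded. They were preincubated 10 min at 30 °C with compound and 5 µM nitrendipine in HEPES/Tris pH 7.4 HBSS with 0.5% BSA, then KCl/CaCl2-depolarized. The peak-minus-basal 400/490 nm emission ratio gave IC50 by four-parameter logistic fit.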

T1 sequence (Q00975 whole entry): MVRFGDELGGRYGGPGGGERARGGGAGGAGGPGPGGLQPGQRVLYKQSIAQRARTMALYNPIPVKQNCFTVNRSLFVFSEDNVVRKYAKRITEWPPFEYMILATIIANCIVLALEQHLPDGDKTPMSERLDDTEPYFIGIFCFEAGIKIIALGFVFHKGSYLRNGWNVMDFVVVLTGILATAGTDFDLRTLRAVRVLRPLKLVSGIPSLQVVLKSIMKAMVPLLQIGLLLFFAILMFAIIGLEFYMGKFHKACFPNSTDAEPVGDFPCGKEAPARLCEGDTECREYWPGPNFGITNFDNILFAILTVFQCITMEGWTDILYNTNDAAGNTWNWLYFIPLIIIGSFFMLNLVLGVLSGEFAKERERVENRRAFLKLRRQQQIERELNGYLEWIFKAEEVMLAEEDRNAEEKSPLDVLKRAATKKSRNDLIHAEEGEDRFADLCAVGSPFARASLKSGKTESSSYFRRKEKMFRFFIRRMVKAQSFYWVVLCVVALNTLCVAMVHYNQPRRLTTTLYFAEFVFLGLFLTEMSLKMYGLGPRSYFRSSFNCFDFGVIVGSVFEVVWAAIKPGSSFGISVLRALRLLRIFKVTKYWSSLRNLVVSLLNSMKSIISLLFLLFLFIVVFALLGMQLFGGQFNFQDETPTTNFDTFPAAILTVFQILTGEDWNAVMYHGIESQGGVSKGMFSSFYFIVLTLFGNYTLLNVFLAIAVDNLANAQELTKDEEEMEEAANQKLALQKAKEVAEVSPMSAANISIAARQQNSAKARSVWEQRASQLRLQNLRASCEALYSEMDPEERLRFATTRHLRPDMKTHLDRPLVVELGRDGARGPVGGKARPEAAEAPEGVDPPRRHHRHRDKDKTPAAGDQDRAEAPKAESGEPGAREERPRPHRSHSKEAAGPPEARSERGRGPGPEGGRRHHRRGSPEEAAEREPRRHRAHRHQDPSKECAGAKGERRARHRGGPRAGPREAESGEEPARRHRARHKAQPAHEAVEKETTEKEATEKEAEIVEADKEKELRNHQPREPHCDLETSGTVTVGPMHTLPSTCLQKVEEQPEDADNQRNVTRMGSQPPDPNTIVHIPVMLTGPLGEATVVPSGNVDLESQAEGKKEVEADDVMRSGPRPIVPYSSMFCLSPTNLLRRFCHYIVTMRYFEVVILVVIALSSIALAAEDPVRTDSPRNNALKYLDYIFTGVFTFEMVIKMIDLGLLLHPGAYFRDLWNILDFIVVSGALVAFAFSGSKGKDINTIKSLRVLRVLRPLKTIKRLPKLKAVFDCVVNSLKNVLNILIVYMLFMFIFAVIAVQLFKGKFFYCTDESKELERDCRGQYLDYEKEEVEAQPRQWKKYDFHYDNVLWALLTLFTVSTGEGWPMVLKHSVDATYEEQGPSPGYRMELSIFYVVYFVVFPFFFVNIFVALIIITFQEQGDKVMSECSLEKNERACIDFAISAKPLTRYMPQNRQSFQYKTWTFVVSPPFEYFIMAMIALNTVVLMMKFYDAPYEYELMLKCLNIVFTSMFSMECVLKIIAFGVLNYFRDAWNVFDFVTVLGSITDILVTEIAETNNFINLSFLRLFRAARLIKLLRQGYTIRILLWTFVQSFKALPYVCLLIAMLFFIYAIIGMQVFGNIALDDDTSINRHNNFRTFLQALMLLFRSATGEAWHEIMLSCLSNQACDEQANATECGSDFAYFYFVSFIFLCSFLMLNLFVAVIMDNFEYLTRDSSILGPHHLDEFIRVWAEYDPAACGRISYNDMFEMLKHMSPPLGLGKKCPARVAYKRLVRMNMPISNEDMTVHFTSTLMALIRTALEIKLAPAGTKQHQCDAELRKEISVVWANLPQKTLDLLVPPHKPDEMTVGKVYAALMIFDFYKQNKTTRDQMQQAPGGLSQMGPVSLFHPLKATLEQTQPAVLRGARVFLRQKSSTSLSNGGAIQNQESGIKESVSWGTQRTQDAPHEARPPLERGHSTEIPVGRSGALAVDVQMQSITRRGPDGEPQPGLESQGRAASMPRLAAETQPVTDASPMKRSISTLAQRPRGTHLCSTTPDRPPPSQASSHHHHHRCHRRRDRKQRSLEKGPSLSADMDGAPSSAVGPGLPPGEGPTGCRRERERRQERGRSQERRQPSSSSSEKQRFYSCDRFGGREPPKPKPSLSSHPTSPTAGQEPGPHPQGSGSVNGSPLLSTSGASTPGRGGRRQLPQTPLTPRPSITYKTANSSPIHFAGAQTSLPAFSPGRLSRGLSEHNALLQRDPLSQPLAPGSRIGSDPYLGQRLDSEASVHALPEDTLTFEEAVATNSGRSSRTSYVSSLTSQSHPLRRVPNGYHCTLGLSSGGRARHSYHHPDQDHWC
T1 sequence (P54284 whole entry partner): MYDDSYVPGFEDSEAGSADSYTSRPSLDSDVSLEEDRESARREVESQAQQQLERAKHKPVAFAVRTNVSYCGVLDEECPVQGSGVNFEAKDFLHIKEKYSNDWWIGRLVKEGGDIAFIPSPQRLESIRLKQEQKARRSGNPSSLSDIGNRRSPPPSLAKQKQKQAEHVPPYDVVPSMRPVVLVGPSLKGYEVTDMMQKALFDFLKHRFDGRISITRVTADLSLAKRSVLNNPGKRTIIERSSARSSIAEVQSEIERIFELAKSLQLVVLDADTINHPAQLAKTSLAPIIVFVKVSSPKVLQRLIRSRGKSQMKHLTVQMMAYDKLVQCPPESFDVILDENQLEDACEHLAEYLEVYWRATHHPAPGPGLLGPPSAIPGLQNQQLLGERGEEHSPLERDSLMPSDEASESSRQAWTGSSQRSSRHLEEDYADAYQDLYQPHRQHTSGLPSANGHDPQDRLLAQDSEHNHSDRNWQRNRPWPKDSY
T1 sequence (P54289 25-946 partner limits assumed): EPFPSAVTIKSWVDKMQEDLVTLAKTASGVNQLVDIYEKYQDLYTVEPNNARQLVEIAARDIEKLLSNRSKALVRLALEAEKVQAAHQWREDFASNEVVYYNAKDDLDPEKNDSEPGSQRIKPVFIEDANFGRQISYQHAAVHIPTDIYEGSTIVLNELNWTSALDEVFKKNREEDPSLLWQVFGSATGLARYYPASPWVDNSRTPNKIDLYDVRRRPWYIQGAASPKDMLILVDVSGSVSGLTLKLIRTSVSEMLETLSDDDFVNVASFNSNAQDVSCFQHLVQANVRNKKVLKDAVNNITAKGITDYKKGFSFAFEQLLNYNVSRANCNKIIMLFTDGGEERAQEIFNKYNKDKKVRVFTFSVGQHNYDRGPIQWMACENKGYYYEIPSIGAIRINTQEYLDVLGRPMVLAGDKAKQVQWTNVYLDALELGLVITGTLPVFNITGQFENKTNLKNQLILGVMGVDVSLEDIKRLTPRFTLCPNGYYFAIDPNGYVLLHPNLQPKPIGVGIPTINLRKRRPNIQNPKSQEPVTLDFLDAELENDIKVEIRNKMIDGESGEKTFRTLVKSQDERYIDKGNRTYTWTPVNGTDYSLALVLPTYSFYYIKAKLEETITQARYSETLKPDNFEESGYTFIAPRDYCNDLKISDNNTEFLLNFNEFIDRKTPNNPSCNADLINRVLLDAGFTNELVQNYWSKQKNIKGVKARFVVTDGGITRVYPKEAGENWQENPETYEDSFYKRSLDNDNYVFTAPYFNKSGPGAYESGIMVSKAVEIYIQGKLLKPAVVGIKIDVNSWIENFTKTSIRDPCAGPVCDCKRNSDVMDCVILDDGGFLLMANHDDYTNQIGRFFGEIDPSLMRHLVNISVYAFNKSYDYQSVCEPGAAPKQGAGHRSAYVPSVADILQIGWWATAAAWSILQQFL
T1 sequence (P54289 947-1103 partner limits assumed): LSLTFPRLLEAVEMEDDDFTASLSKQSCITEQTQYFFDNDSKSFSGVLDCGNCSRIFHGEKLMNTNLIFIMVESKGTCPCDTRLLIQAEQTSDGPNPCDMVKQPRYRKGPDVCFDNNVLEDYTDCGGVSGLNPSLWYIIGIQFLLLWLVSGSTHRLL

In order of falling “IMR 32 % of Blockade @ 1 μM” value:
1. CC(C)C[C@@H](C(=O)N[C@@H](Cc1ccc(OCc2ccccc2)cc1)C(=O)NC(C)(C)C)N(C)Cc1cccnc1 (relative stereo) [Example 101, [S-(R*,R*)]-4-Methyl-2-(methyl-pyridin-3-ylmethyl-amino)-pentanoic acid [2-(4-benzyloxy-phenyl)-1-tert-butylcarbamoyl-ethyl]-amide]  26%
2. CC(C)C[C@@H](C(=O)N[C@@H](Cc1ccc(OCc2ccccc2)cc1)C(=O)NC(C)(C)C)N1CCOCC1 (relative stereo) [Example 94, [S-(R*,R*)]-4-Methyl-2-morpholin-4-yl-pentanoic acid [2-(4-benzyloxy-phenyl)-1-tert-butylcarbamoyl-ethyl]-amide]  24%

Same assay, conditions: IMR-32 cells, 5 μM nitrendipine; Examples 116-140; read-out: IMR 32% of Blockade @

In order of rising IC50:
1. CC(C)CCN(C)[C@@H](CC(C)C)C(=O)N[C@@H](Cc1ccc(OCc2ccccc2)cc1)C(=O)NCCN1CCCCC1 (relative stereo) [Example 117, [S-(R*,R*)]-4-Methyl-2-[methyl-(3-methylbutyl)-amino]-pentanoic acid [2-(4-benzyloxy-phenyl)-1-(2-piperidin-1-yl-ethylcarbamoyl)-ethyl]-amide]  640 nM
2. CC(C)CCN(C)[C@@H](CC(C)C)C(=O)N[C@@H](Cc1ccc(OCc2ccccc2)cc1)C(=O)NC(C)(C)CO (relative stereo) [Example 116, [S-(R*,R*)]4-Methyl-2-[methyl-(3-methylbutyl)-amino]-pentanoic acid [2-(4-benzyloxy-phenyl)-1-(2-hydroxy-1,1-dimethyl-ethylcarbamoyl)-ethyl]-amide]  1400 nM
3. CC(C)CCN(C)[C@@H](CC(C)C)C(=O)N[C@@H](Cc1ccc(OCc2ccccc2)cc1)C(=O)NCCCN1CCCC1=O (relative stereo) [Example 118, [S-(R*,R*)]-4-Methyl-2-[methyl-(3-methyl-butyl)-amino]-pentanoic acid {2-(4-benzyloxy-phenyl)-1-[3-(2-oxo-pyrrolidin-1-yl)-propylcarbamoyl]-ethyl}-amide]  1900 nM
4. CC(C)C[C@@H](C(=O)N[C@@H](Cc1ccc(OCc2ccccc2)cc1)C(=O)NCCN1CCSCC1)N1CCOCC1 (relative stereo) [Example 122, [S-(R*,R*)]-4-Methyl-2-morpholin-4-yl-pentanoic acid [2-(4-benzyloxy-phenyl)-1-(2-thiomorpholin-4-yl-ethylcarbamoyl)-ethyl]-amide]  3100 nM
5. CC(C)C[C@@H](C(=O)N[C@@H](Cc1ccc(OCc2ccccc2)cc1)C(=O)NCCc1ccccn1)N1CCOCC1 (relative stereo) [Example 120, [S-(R*,R*)]-4-Methyl-2-morpholin-4yl-pentanoic acid [2-(4-benzyloxy-phenyl)-1-(2-pyridin-2-yl-ethylcarbamoyl)-ethyl]-amide]  6000 nM
6. CC(C)C[C@H](NC1CCOCC1)C(=O)N[C@@H](Cc1ccc(OCc2ccccc2)cc1)C(=O)NCCCn1ccnc1 (relative stereo) [Example 129, [S-(R*,R*)]-4-Methyl-2-(tetrahydropyran-4-yl-amino)-pentanoic acid [2-(4-benzyloxy-phenyl)-1-(3-imidazol-1-yl-propylcarbamoyl)-ethyl]-amide]  6300 nM
7. CC(C)C[C@@H](C(=O)N[C@@H](Cc1ccc(OCc2ccccc2)cc1)C(=O)N1CCC(O)CC1)N1CCOCC1 (relative stereo) [Example 126, [S-(R*,R*)]4-Methyl-2-morpholin-4-yl-pentanoic acid [2-(4-benzyloxy-phenyl)-1-(4-hydroxypiperidinylcarbamoyl)-ethyl]-amide]  6400 nM
8. CCC(CO)(CO)NC(=O)[C@H](Cc1ccc(OCc2ccccc2)cc1)NC(=O)[C@H](CC(C)C)N1CCOCC1 (relative stereo) [Example 124, [S-(R*,R*)]-4-Methyl-2-morpholin-4-yl-pentanoic acid [2-(4-benzyloxy-phenyl)-1-(1,1-bis-hydroxymethyl-propyl-carbamoyl)-ethyl]-amide]  7200 nM
9. CC(C)C[C@H](NC1CCOCC1)C(=O)N[C@@H](Cc1ccc(OCc2ccccc2)cc1)C(=O)NCCN1CCOCC1 (relative stereo) [Example 127, [S-(R*,R*)]-4-Methyl-2-(tetrahydropyran-4-yl-amino)-pentanoic acid [2-(4-benzyloxy-phenyl)-1-(2-morpholin4-yl-ethylcarbamoyl)-ethyl]-amide]  7500 nM
10. CC(C)C[C@@H](C(=O)N[C@@H](Cc1ccc(OCc2ccccc2)cc1)C(=O)NCCN1CCCC1)N1CCOCC1 (relative stereo) [Example 125, [S-(R*,R*)]-4-Methyl-2-morpholin-4-yl-pentanoic acid [2-(4-benzyloxy-phenyl)-1-(2-pyrrolidin-1-yl-ethylcarbamoyl)-ethyl]-amide]  9700 nM
11. CC(C)C[C@@H](C(=O)N[C@@H](Cc1ccc(OCc2ccccc2)cc1)C(=O)NCCN1CCOCC1)N(C)C (relative stereo) [Example 132, [S-(R*,R*)]-2-Dimethylamino-4-methyl-pentanoic acid [2-(4-benzyloxy-phenyl)-1-(2-morpholin-4-yl-ethylcarbamoyl)-ethyl]-amide]  12000 nM
12. CC(C)C[C@@H](C(=O)N[C@@H](Cc1ccc(OCc2ccccc2)cc1)C(=O)NC(C)(C)CO)N1CCOCC1 (relative stereo) [Example 123, [S-(R*,R*)]-4-Methyl-2-morpholin-4-yl-pentanoic acid [2-(4-benzyloxy-phenyl)-1-(2-hydroxy-1,1-dimethyl-ethylcarbamoyl)-ethyl]-amide]  13000 nM

Same assay, conditions: IMR-32 cells, K+ depolarization, 5 μM nitrendipine to block L-type channels; read-out: IMR 32 IC50

In order of rising IC50:
1. CC(C)CCN[C@@H](CC(C)C)C(=O)N[C@@H](Cc1ccc(OCc2ccccc2)cc1)C(=O)NC(C)(C)C (relative stereo) [Example 105, [S-(R*,R*)]-4-Methyl-2-(3-methyl-butylamino)-pentanoic acid [2-(4-benzyloxy-phenyl)-1-tert-butylcarbamoyl-ethyl]-amide]  240 nM
2. CC(C)C[C@H](NCC1CCCCC1)C(=O)N[C@@H](Cc1ccc(OCc2ccccc2)cc1)C(=O)OC(C)(C)C (relative stereo) [Example 91, [S-(R*,R*)]-3-(4Benzyloxy-phenyl)-2-[2-(cyclohexylmethyl-amino)-4-methyl-pentanoylamino]-propionic acid tert-butyl ester]  300 nM
3. COc1ccc(CN(C)[C@@H](CC(C)C)C(=O)N[C@@H](Cc2ccc(OCc3ccccc3)cc2)C(=O)NC(C)(C)C)cc1 (relative stereo) [Example 98, [S-(R*,R*)]-2-[(4-Methoxy-benzyl)-methyl-amino]-4-methyl-pentanoic acid [2-(4-benzyloxy-phenyl)-1-tert-butylcarbamoyl-ethyl]-amide]  400 nM
4. CC(C)C[C@@H](C(=O)N[C@@H](Cc1ccc(OCc2ccccc2)cc1)C(=O)NC(C)(C)C)N(C)Cc1ccc[nH]1 (relative stereo) [Example 89, [S-(R*,R*)]-4-Methyl-2-[methyl-(1H-pyrrol-2-ylmethyl)-amino]-pentanoic acid [2-(4-benzyloxy-phenyl)-1-tert-butylcarbamoyl-ethyl]-amide]  1000 nM
5. CC(C)C[C@@H](C(=O)N[C@@H](Cc1ccc(OCc2ccccc2)cc1)C(=O)NC(C)(C)C)N(C)Cc1ccc(O)cc1 (relative stereo) [Example 82, [S-(R*,R*)]-2-[(4-Hydroxy-benzyl)-methyl-amino]-4-methyl-pentanoic acid [2-(4-benzyloxy-phenyl)-1-tert-butylcarbamoyl-ethyl]-amide]  1300 nM
6. CC(C)C[C@@H](C(=O)N[C@@H](Cc1ccc(OCc2ccccc2)cc1)C(=O)NC(C)(C)C)N(C)Cc1ccncc1 (relative stereo) [Example 83, [S-(R*,R*)]-4-Methyl-2-(methyl-pyridin4-ylmethyl-amino)-pentanoic acid [2-(4-benzyloxy-phenyl)-1-tert-butylcarbamoyl-ethyl]-amide]  1300 nM
7. CC(C)C[C@@H](C(=O)N[C@@H](Cc1ccc(OCc2ccccc2)cc1)C(=O)NC(C)(C)C)N1CCCCC1 (relative stereo) [Example 99, [S-(R*,R*)]-4-Methyl-2-piperidin-1-yl-pentanoic acid [2-(4-benzyloxy-phenyl)-1-tert-butylcarbamoyl-ethyl]-amide]  1400 nM
8. CCN[C@@H](CC(C)C)C(=O)N[C@@H](Cc1ccc(OCc2ccccc2)cc1)C(=O)NC(C)(C)C (relative stereo) [Example 100, [S-(R*,R*)]-2-Ethylamino-4-methyl-pentanoic acid [2-(4-benzyloxy-phenyl)-1-tert-butylcarbamoyl-ethyl]-amide]  2000 nM
9. CC(C)C[C@@H](C(=O)N[C@@H](Cc1ccc(OCc2ccccc2)cc1)C(=O)NC(C)(C)C)N(C)C(C)C (relative stereo) [Example 86, [S-(R*,R*)]-2-(Isopropyl-methyl-amino)-4-methyl-pentanoic acid [2-(4-benzyloxy-phenyl)-1-tert-butylcarbamoyl-ethyl]-amide]  2800 nM
10. CC(C)C[C@@H](C(=O)N[C@@H](Cc1ccc(OCc2ccccc2)cc1)C(=O)NC(C)(C)C)N(C)C1CCOCC1 (relative stereo) [Example 87, [S-(R*,R*)]-4-Methyl-2-[methyl-(tetrahydro-pyran-4-yl)-amino]-pentanoic acid [2-(4-benzyloxy-phenyl)-1-tert-butylcarbamoyl-ethyl]-amide]  3100 nM
11. CCOC(=O)CN(C)[C@@H](CC(C)C)C(=O)N[C@@H](Cc1ccc(OCc2ccccc2)cc1)C(=O)NC(C)(C)C (relative stereo) [Example 96, [S-(R*,R*)]-({1-[2-(4-Benzyloxy-phenyl)-1-tert-butylcarbamoyl-ethylcarbamoyl]-3-methyl-butyl}-methyl-amino)-acetic acid ethyl ester]  4400 nM
